Results reported in paper PMC6443933, “Antagonizing Retinoic Acid-Related-Orphan Receptor Gamma Activity Blocks the T Helper 17/Interleukin-17 Pathway Leading to Attenuated Pro-inflammatory Human Keratinocyte and Skin Responses” (Frontiers in Immunology, 2019).

Legend:
[1] = tested on: total CD4+ T-cells; experiment: Th0, Th1, Th2 polarization, signature cytokine ELISA; type: cell-based, human
Method: Total, naive and memory CD4^+ T cells were isolated from Peripheral blood mononuclear cells (PBMCs) from healthy volunteers by density gradient centrifugation using Ficoll Paque (GE). Total, naive or memory CD4^+ T-cells were prepared by immunomagnetic separation using the respective CD4^+ T-cell enrichment kits resulting in untouched highly purified subsets (EasySep™, Stem Cell). Purity was assessed by flow cytometry and was between 95 and 98% for the total CD4^+ T-cells. The purity of naive (CD45RA^+CD45RO^−) and memory (CD45RA^−CD45RO^+) CD4^+T-cells ranged between 95 and 98%, respectively. For T-cell stimulation experiments, cells were treated as previously published ([44]). Briefly, T-cells were stimulated with plate-bound monoclonal antibodies against CD3 (1 μg/ml, clone OKT-3, BioXcell) and CD28 (1 μg/ml, clone CD28.2, BioLegend). For Th17 polarization assays, IL-6 (20 ng/ml), TGF-β1 (5 ng/ml), IL-1β (10 ng/ml), and IL-23 (10 ng/ml) were added. For Th1 polarization assays, IL-12 (10 ng/ml) and anti-IL-4 antibody (5 μg/ml), for Th2 polarizations, IL-4 (10 ng/ml) and anti-IFN-γ antibody (5 μg/ml) were added. For Th0 polarization assays, cells were only stimulated with CD3 and CD28 antibodies. Supernatants were collected after 3 or 7 days of incubation for total or naive/memory CD4^+ T-cell polarizations, respectively. Cytokine concentrations were quantified by ELISA according to the manufacturer's instructions (eBioscience or BioLegend).

[2] = tested on: T1, RORγt binding to RORE DNA binding sites; experiment: RORE oligonucleotide pull-down assay; type: cell-based, human; settings: 10 μM, HUT78-RORγt nuclear extracts, anti-CD3/PMA 2 h, vs DMSO
T1 construct: HUT78 T-cells stably expressing full-length eGFP-RORγt; eGFP; expressed in transfected cells
Method: In order to detect RORγt binding to its cognate DNA binding sites, biotinylated oligonucleotide probes containing putative 4 × RORE or mutated-RORE DNA sequences were synthesized (Microsynth, Switzerland) and annealed in order to form a double stranded DNA probe. The probes contained the following sequences (where the bold nucleotides represent a putative RORγt binding site or the mutated form of the RORE):
Nuclear extracts originating from HUT78 cells stably expressing eGFP-RORγt were prepared as previously described ([45]). Briefly, cells were incubated with Cpd A (10 μM final concentration) for 0.5 h followed by a 2 h-stimulation period using CD3 antibody (2.5 μg/ml, clone OKT-3, BioXcell) plus PMA (8 ng/ml, Sigma). Nuclear lysates were generated using a nuclear extraction kit (Pierce, Thermo scientific), followed by a pre-clearing step with streptavidin-sepharose beads (GE healthcare Amersham) for 1 h at 4°C. The supernatants were incubated with biotinylated double-stranded RORE or with mutated RORE probes (10 nM final concentration) for 1 h at 4°C, followed by addition of a 50% slurry of streptavidin-sepharose beads for 1 h. The bound complexes were washed five times with 1 ml buffer consisting of 50 mM Tris-HCl, 1 mM EDTA, 1% NP-40, 150 mM NaCl and protease inhibitors (Roche). […]

[3] = target: T2, human RORγt-LBD (Homo sapiens, UniProt P51449); experiment: TR-FRET RIP140 co-activator peptide displacement from RORγt-LBD; type: biochemical; settings: 1 h incubation, read-out: IC50, disruption of RIP140 peptide interaction with RORγt-LBD
T2 construct: human RORγt-LBD (264-518, produced at Novartis); made in house
T2 sequence (P51449 264-518): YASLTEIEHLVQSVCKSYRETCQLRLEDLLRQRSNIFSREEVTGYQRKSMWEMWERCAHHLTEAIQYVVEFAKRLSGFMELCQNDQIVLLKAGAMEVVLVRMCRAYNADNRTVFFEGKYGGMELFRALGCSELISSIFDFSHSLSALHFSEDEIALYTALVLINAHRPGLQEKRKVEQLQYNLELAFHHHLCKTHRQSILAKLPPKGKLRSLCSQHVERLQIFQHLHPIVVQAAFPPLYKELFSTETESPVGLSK
Method: Compound-mediated disruption of the interaction between the human RORγt-LBD (264-518, produced at Novartis) with a biotinylated RIP140 derived co-activator peptide (biotinyl-NH-Ahx-[…]-CONH2, Thermo Scientific) was quantified by TR-FRET as previously described ([34], [44]). Briefly, Cpd A was incubated with a mixture consisting of 6 nM His6-tagged RORγt-LBD, 90 nM biotinylated RIP140 co-activator peptide, 0.45 nM Cy5-labeled streptavidin (GE Healthcare), 1.5 nM Europium-labeled anti-His6 antibody (Perkin Elmer). After 1 h of incubation, the emissions were measured at 615 and 665 nm. Concentration-response curves were generated and IC50 values were calculated using the GraphPad Prism software package.

## Cc1ccc(C(=O)Nc2cn3ccnc3c(CN3CCN(c4noc(C(C)(C)C)n4)[C@@H](C)C3)c2C)cn1 [Cpd A, (S)-N-(8-((4-(5-(tert-butyl)-1,2,4-oxadiazol-3-yl)-3-methylpiperazin-1-yl)methyl)-7-methylimidazo[1,2-a]pyridin-6-yl)-6-methylnicotinamide]
[1]; IL-4 and anti-IFN-γ antibody
  Th2 signature cytokine production (IL-13): did not have any impact
[1]; IL-12 and anti-IL-4 antibody
  Th1 signature cytokine production (IFN-γ): did not have any impact
[1]; anti-CD3 plus anti-CD28 only
  Th0 signature cytokine production (IL-2): did not have any impact
[2]
  RORγt association with the ROR elements: still intact
[3]
  IC50: 5.7 nM
